Test results published in patent publication US20230085307A1, “PYRIDAZINONE COMPOUND AND HERBICIDE” (NISSAN CHEMICAL CORPORATION, priority 2019, published 2023).

Experiments:
late watergrass = assay: Test Example 1: herbicidal activity, application before weed generation under submerged conditions (Table 16, symbol A); assay type: in vivo, late watergrass (Echinochloa oryzicola)
Outline: (§1)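 Emulsion formulation, water-diluted to set dose, was put onto the flooded surface (4 cm depth, alluvial soil) the same day weeds were sown and 2.5-leaf rice transplanted. After 3 weeks at 25-30 °C under glass, each species was rated 0 (≤5% kill) to 5 (≥90% kill).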

redroot pigweed [1] = assay: Test Example 5: herbicidal effect by foliage application, plastic box (Table 20, symbol N); assay type: in vivo, redroot pigweed (Amaranthus retroflexus); conditions: foliage application, AAH 320 g/ha, evaluated three weeks after application
Outline: (§2)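 Plants sown in sterilized diluvial soil and grown 14 days in a greenhouse at 25° C to 30° C, then sprayed on the foliage with the compound's emulsion diluted in water to a predetermined herbicide amount. Injury to weeds and crops scored three weeks after application on a visual rating scale.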

oval-leafed pondweed = assay: Test Example 1: herbicidal activity, application before weed generation under submerged conditions (Table 16, symbol C); assay type: in vivo, oval-leafed pondweed (Monochoria vaginalis)
Outline: as §1

lambsquarters [2] = assay: Test Example 4: herbicidal effect by soil treatment (Table 19, symbol O); assay type: in vivo, lambsquarters (Chenopodium album); conditions: amount of applied herbicide 320 g/ha
Outline: (§3)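 Three weeks of greenhouse growth at 25° C. to 30° C. followed a uniform surface spray of water-diluted emulsion at a predetermined herbicide amount. Seeds had been sown beforehand under about 1.5 cm of sterilized diluvial soil. Grading followed criteria set out in an earlier test.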

velvetleaf [3] = assay: Test Example 4: herbicidal effect by soil treatment (Table 19, symbol M); assay type: in vivo, velvetleaf (Abutilon theophrasti); conditions: amount of applied herbicide 320 g/ha
Outline: as §3

Japanese bulrush = assay: Test Example 1: herbicidal activity, application before weed generation under submerged conditions (Table 16, symbol B); assay type: in vivo, Japanese bulrush (Schoenoplectus juncoides)
Outline: as §1

persian speedwell [4] = assay: Test Example 4: herbicidal effect by soil treatment (Table 19, symbol R); assay type: in vivo, Persian speedwell (Veronica persica); conditions: amount of applied herbicide 320 g/ha
Outline: as §3

windgrass [5] = assay: Test Example 5: herbicidal effect by foliage application, plastic box (Table 20, symbol L); assay type: in vivo, windgrass (Apera spica-venti); conditions: foliage application, AAH 320 g/ha, evaluated three weeks after application
Outline: as §2

wild oat [6] = assay: Test Example 4: herbicidal effect by soil treatment (Table 19, symbol I); assay type: in vivo, wild oat (Avena fatua); conditions: amount of applied herbicide 320 g/ha
Outline: as §3

blackgrass [7] = assay: Test Example 5: herbicidal effect by foliage application, plastic box (Table 20, symbol J); assay type: in vivo, blackgrass (Alopecurus myosuroides); conditions: foliage application, AAH 320 g/ha, evaluated three weeks after application
Outline: as §2

barnyard grass [8] = assay: Test Example 3: herbicidal effect by foliage application, Wagner pot (Table 18, symbol H); assay type: in vivo, barnyard grass (Echinochloa crus-galli); conditions: amount of applied herbicide 320 g/ha
Outline: (§4)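 Plants were sown in alluvial soil held under 0.1–0.5 cm standing water and grown 14 days in a greenhouse at 25–30 °C. An emulsifiable formulation, water-diluted to the set dose, was then sprayed onto the foliage, and effects were scored three weeks later using previously defined criteria.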

green foxtail [9] = assay: Test Example 4: herbicidal effect by soil treatment (Table 19, symbol G); assay type: in vivo, green foxtail (Setaria viridis); conditions: amount of applied herbicide 320 g/ha
Outline: as §3

velvetleaf [10] = assay: Test Example 5: herbicidal effect by foliage application, plastic box (Table 20, symbol M); assay type: in vivo, velvetleaf (Abutilon theophrasti); conditions: foliage application, AAH 320 g/ha, evaluated three weeks after application
Outline: as §2

chickweed [11] = assay: Test Example 5: herbicidal effect by foliage application, plastic box (Table 20, symbol P); assay type: in vivo, common chickweed (Stellaria media); conditions: foliage application, AAH 320 g/ha, evaluated three weeks after application
Outline: as §2

chickweed [12] = assay: Test Example 4: herbicidal effect by soil treatment (Table 19, symbol P); assay type: in vivo, common chickweed (Stellaria media); conditions: amount of applied herbicide 320 g/ha
Outline: as §3

wild oat [13] = assay: Test Example 5: herbicidal effect by foliage application, plastic box (Table 20, symbol I); assay type: in vivo, wild oat (Avena fatua); conditions: foliage application, AAH 320 g/ha, evaluated three weeks after application
Outline: as §2

redroot pigweed [14] = assay: Test Example 4: herbicidal effect by soil treatment (Table 19, symbol N); assay type: in vivo, redroot pigweed (Amaranthus retroflexus); conditions: amount of applied herbicide 320 g/ha
Outline: as §3

southern crabgrass [15] = assay: Test Example 4: herbicidal effect by soil treatment (Table 19, symbol F); assay type: in vivo, southern crabgrass (Digitaria ciliaris); conditions: amount of applied herbicide 320 g/ha
Outline: as §3

Italian ryegrass [16] = assay: Test Example 4: herbicidal effect by soil treatment (Table 19, symbol K); assay type: in vivo, Italian ryegrass (Lolium multiflorum); conditions: amount of applied herbicide 320 g/ha
Outline: as §3

barnyard grass [17] = assay: Test Example 5: herbicidal effect by foliage application, plastic box (Table 20, symbol H); assay type: in vivo, barnyard grass (Echinochloa crus-galli); conditions: foliage application, AAH 320 g/ha, evaluated three weeks after application
Outline: as §2

Chinese sprangletop = assay: Test Example 3: herbicidal effect by foliage application, Wagner pot (Table 18, symbol D); assay type: in vivo, chinese sprangletop (Leptochloa chinensis); conditions: amount of applied herbicide 320 g/ha
Outline: as §4

rice flat sedge = assay: Test Example 3: herbicidal effect by foliage application, Wagner pot (Table 18, symbol E); assay type: in vivo, rice flat sedge (Cyperus iria); conditions: amount of applied herbicide 320 g/ha
Outline: as §4

lambsquarters [18] = assay: Test Example 5: herbicidal effect by foliage application, plastic box (Table 20, symbol O); assay type: in vivo, lambsquarters (Chenopodium album); conditions: foliage application, AAH 320 g/ha, evaluated three weeks after application
Outline: as §2

green foxtail [19] = assay: Test Example 5: herbicidal effect by foliage application, plastic box (Table 20, symbol G); assay type: in vivo, green foxtail (Setaria viridis); conditions: foliage application, AAH 320 g/ha, evaluated three weeks after application
Outline: as §2

southern crabgrass [20] = assay: Test Example 5: herbicidal effect by foliage application, plastic box (Table 20, symbol F); assay type: in vivo, southern crabgrass (Digitaria ciliaris); conditions: foliage application, AAH 320 g/ha, evaluated three weeks after application
Outline: as §2

persian speedwell [21] = assay: Test Example 5: herbicidal effect by foliage application, plastic box (Table 20, symbol R); assay type: in vivo, Persian speedwell (Veronica persica); conditions: foliage application, AAH 320 g/ha, evaluated three weeks after application
Outline: as §2

windgrass [22] = assay: Test Example 4: herbicidal effect by soil treatment (Table 19, symbol L); assay type: in vivo, windgrass (Apera spica-venti); conditions: amount of applied herbicide 320 g/ha
Outline: as §3

barnyard grass [23] = assay: Test Example 4: herbicidal effect by soil treatment (Table 19, symbol H); assay type: in vivo, barnyard grass (Echinochloa crus-galli); conditions: amount of applied herbicide 320 g/ha
Outline: as §3

blackgrass [24] = assay: Test Example 4: herbicidal effect by soil treatment (Table 19, symbol J); assay type: in vivo, blackgrass (Alopecurus myosuroides); conditions: amount of applied herbicide 320 g/ha
Outline: as §3

Italian ryegrass [25] = assay: Test Example 5: herbicidal effect by foliage application, plastic box (Table 20, symbol K); assay type: in vivo, Italian ryegrass (Lolium multiflorum); conditions: foliage application, AAH 320 g/ha, evaluated three weeks after application
Outline: as §2

[26] = amount of applied herbicide 320 g/ha

## Cc1nn(C)c(=O)c(-c2c(-c3ccc(F)c(F)c3)sc3ccc(F)cc23)c1O [2-344]
Late watergrass; 320 g/ha applied herbicide
  Herbicidal effect on A: late watergrass (grade 0-5): 0 (Herbicidal rate of 5% or less (almost no effect))
Redroot pigweed [1]
  N: redroot pigweed, herbicidal effect (criteria 0-5): 5 (Herbicidal rate of 90% or more (almost completely withered))
oval-leafed pondweed; 320 g/ha applied herbicide
  Herbicidal effect on C: oval-leafed pondweed (grade 0-5): 0 (Herbicidal rate of 5% or less (almost no effect))
Lambsquarters [2]
  herbicidal effect on O: lambsquarters: 5 (Herbicidal rate of 90% or more (almost completely withered))
Velvetleaf [3]
  herbicidal effect on M: velvetleaf: 3 (Herbicidal rate of 40% or more and less than 70%)
Japanese bulrush; 320 g/ha applied herbicide
  Herbicidal effect on B: Japanese bulrush (grade 0-5): 2 (Herbicidal rate of 20% or more and less than 40%)
Persian speedwell [4]
  herbicidal effect on R: persian speedwell: 5 (Herbicidal rate of 90% or more (almost completely withered))
Windgrass [5]
  L: windgrass, herbicidal effect (criteria 0-5): 5 (Herbicidal rate of 90% or more (almost completely withered))
Wild oat [6]
  herbicidal effect on I: wild oat: 0 (Herbicidal rate of 5% or less (almost no effect))
Blackgrass [7]
  J: blackgrass, herbicidal effect (criteria 0-5): 2 (Herbicidal rate of 20% or more and less than 40%)
Barnyard grass [8]
  herbicidal effect on H: barnyard grass: 5 (Herbicidal rate of 90% or more (almost completely withered))
Green foxtail [9]
  herbicidal effect on G: green foxtail: 5 (Herbicidal rate of 90% or more (almost completely withered))
Velvetleaf [10]
  M: velvetleaf, herbicidal effect (criteria 0-5): 5 (Herbicidal rate of 90% or more (almost completely withered))
Chickweed [11]
  P: chickweed, herbicidal effect (criteria 0-5): 5 (Herbicidal rate of 90% or more (almost completely withered))
Chickweed [12]
  herbicidal effect on P: chickweed: 4 (Herbicidal rate of 70% or more and less than 90%)
Wild oat [13]
  I: wild oat, herbicidal effect (criteria 0-5): 3 (Herbicidal rate of 40% or more and less than 70%)
Redroot pigweed [14]
  herbicidal effect on N: redroot pigweed: 5 (Herbicidal rate of 90% or more (almost completely withered))
Southern crabgrass [15]
  herbicidal effect on F: southern crabgrass: 5 (Herbicidal rate of 90% or more (almost completely withered))
Italian ryegrass [16]
  herbicidal effect on K: Italian ryegrass: 5 (Herbicidal rate of 90% or more (almost completely withered))
Barnyard grass [17]
  H: barnyard grass, herbicidal effect (criteria 0-5): 5 (Herbicidal rate of 90% or more (almost completely withered))
Chinese sprangletop
  herbicidal effect on D: Chinese sprangletop: 4 (Herbicidal rate of 70% or more and less than 90%)
Rice flat sedge
  herbicidal effect on E: rice flat sedge: 5 (Herbicidal rate of 90% or more (almost completely withered))
Lambsquarters [18]
  O: lambsquarters, herbicidal effect (criteria 0-5): 4 (Herbicidal rate of 70% or more and less than 90%)
Green foxtail [19]
  G: green foxtail, herbicidal effect (criteria 0-5): 5 (Herbicidal rate of 90% or more (almost completely withered))
Southern crabgrass [20]
  F: southern crabgrass, herbicidal effect (criteria 0-5): 5 (Herbicidal rate of 90% or more (almost completely withered))
Persian speedwell [21]
  R: persian speedwell, herbicidal effect (criteria 0-5): 5 (Herbicidal rate of 90% or more (almost completely withered))
Windgrass [22]
  herbicidal effect on L: windgrass: 0 (Herbicidal rate of 5% or less (almost no effect))
Barnyard grass [23]
  herbicidal effect on H: barnyard grass: 4 (Herbicidal rate of 70% or more and less than 90%)
Blackgrass [24]
  herbicidal effect on J: blackgrass: 0 (Herbicidal rate of 5% or less (almost no effect))
Italian ryegrass [25]
  K: Italian ryegrass, herbicidal effect (criteria 0-5): 5 (Herbicidal rate of 90% or more (almost completely withered))

## CCCC(=O)Oc1c(C)nn(C)c(=O)c1-c1c(-c2cnccc2C(F)(F)F)sc2ccc(F)cc12 [2-388]
Late watergrass; [26]
  Herbicidal effect, A: late watergrass: 5 (Herbicidal rate of 90% or more (almost completely withered))
Redroot pigweed [1]
  N: redroot pigweed, herbicidal effect (criteria 0-5): 4 (Herbicidal rate of 70% or more and less than 90%)
oval-leafed pondweed; [26]
  Herbicidal effect, C: oval-leafed pondweed: 0 (Herbicidal rate of 5% or less (almost no effect))
Lambsquarters [2]
  herbicidal effect, O: lambsquarters: 2 (Herbicidal rate of 20% or more and less than 40%)
Velvetleaf [3]
  herbicidal effect, M: velvetleaf: 0 (Herbicidal rate of 5% or less (almost no effect))
Japanese bulrush; [26]
  Herbicidal effect, B: Japanese bulrush: 0 (Herbicidal rate of 5% or less (almost no effect))
Persian speedwell [4]
  herbicidal effect, R: persian speedwell: 5 (Herbicidal rate of 90% or more (almost completely withered))
Windgrass [5]
  L: windgrass, herbicidal effect (criteria 0-5): 4 (Herbicidal rate of 70% or more and less than 90%)
Wild oat [6]
  herbicidal effect, I: wild oat: 0 (Herbicidal rate of 5% or less (almost no effect))
Blackgrass [7]
  J: blackgrass, herbicidal effect (criteria 0-5): 1 (Herbicidal rate of 5% or more and less than 20%)
Barnyard grass [8]
  herbicidal effect on H: barnyard grass: 5 (Herbicidal rate of 90% or more (almost completely withered))
Green foxtail [9]
  herbicidal effect, G: green foxtail: 0 (Herbicidal rate of 5% or less (almost no effect))
Velvetleaf [10]
  M: velvetleaf, herbicidal effect (criteria 0-5): 5 (Herbicidal rate of 90% or more (almost completely withered))
Chickweed [11]
  P: chickweed, herbicidal effect (criteria 0-5): 5 (Herbicidal rate of 90% or more (almost completely withered))
Chickweed [12]
  herbicidal effect, P: chickweed: 5 (Herbicidal rate of 90% or more (almost completely withered))
Wild oat [13]
  I: wild oat, herbicidal effect (criteria 0-5): 3 (Herbicidal rate of 40% or more and less than 70%)
Redroot pigweed [14]
  herbicidal effect, N: redroot pigweed: 1 (Herbicidal rate of 5% or more and less than 20%)
Southern crabgrass [15]
  herbicidal effect, F: southern crabgrass: 0 (Herbicidal rate of 5% or less (almost no effect))
Italian ryegrass [16]
  herbicidal effect, K: Italian ryegrass: 0 (Herbicidal rate of 5% or less (almost no effect))
Barnyard grass [17]
  H: barnyard grass, herbicidal effect (criteria 0-5): 4 (Herbicidal rate of 70% or more and less than 90%)
Chinese sprangletop
  herbicidal effect on D: Chinese sprangletop: 3 (Herbicidal rate of 40% or more and less than 70%)
Rice flat sedge
  herbicidal effect on E: rice flat sedge: 3 (Herbicidal rate of 40% or more and less than 70%)
Lambsquarters [18]
  O: lambsquarters, herbicidal effect (criteria 0-5): 4 (Herbicidal rate of 70% or more and less than 90%)
Green foxtail [19]
  G: green foxtail, herbicidal effect (criteria 0-5): 3 (Herbicidal rate of 40% or more and less than 70%)
Southern crabgrass [20]
  F: southern crabgrass, herbicidal effect (criteria 0-5): 1 (Herbicidal rate of 5% or more and less than 20%)
Persian speedwell [21]
  R: persian speedwell, herbicidal effect (criteria 0-5): 5 (Herbicidal rate of 90% or more (almost completely withered))
Windgrass [22]
  herbicidal effect, L: windgrass: 0 (Herbicidal rate of 5% or less (almost no effect))
Barnyard grass [23]
  herbicidal effect, H: barnyard grass: 3 (Herbicidal rate of 40% or more and less than 70%)
Blackgrass [24]
  herbicidal effect, J: blackgrass: 0 (Herbicidal rate of 5% or less (almost no effect))
Italian ryegrass [25]
  K: Italian ryegrass, herbicidal effect (criteria 0-5): 3 (Herbicidal rate of 40% or more and less than 70%)
